From publication PMC4754667 (Clinical genitourinary cancer, 2013)

Tests used:
clinical = conditions: human, in vivo, Mean
Ang2 = conditions: patients with metastatic RCC under sunitinib treatment; cited from earlier work

Row | SMILES | AUC(0-t) (clinical; 3 mg/kg, Sorafenib AUC (AUC0-12)) [ng·h/mL] | Cmax (clinical; 3 mg/kg, Sorafenib Cmax) [ng/mL] | Tmax (clinical; 3 mg/kg, Sorafenib Tmax) [h] | AUC(0-t) (clinical; 10 mg/kg, Sorafenib AUC (AUC0-12)) [ng·h/mL] | Cmax (clinical; 10 mg/kg, Sorafenib Cmax) [ng/mL] | Tmax (clinical; 10 mg/kg, Sorafenib Tmax) [h] | decrease in plasma Ang2 levels (Ang2) [%] | AUC(0-t) (clinical; 3 mg/kg, Sunitinib AUC (AUC0-24)) [ng·h/mL] | Cmax (clinical; 3 mg/kg, Sunitinib Cmax) [ng/mL] | Tmax (clinical; 3 mg/kg, Sunitinib Tmax) [h] | AUC(0-t) (clinical; 10 mg/kg, Sunitinib AUC (AUC0-24)) [ng·h/mL] | Cmax (clinical; 10 mg/kg, Sunitinib Cmax) [ng/mL] | Tmax (clinical; 10 mg/kg, Sunitinib Tmax) [h]
1 | CNC(=O)c1cc(Oc2ccc(NC(=O)Nc3ccc(Cl)c(C(F)(F)F)c3)cc2)ccn1 [Sorafenib, sorafenib] | 2580 | 466 | 1.1 | 3130 | 559 | 1 |  |  |  |  |  |  | 
2 | CCN(CC)CCNC(=O)c1c(C)[nH]c(/C=C2\C(=O)Nc3ccc(F)cc32)c1C [Sunitinib, sunitinib] |  |  |  |  |  |  | 80 | 1300 | 64.2 | 8 | 1250 | 61.8 | 8.1
